{"source": "patent US3971779A", "about": "“7-[2-(5-Amino-1,3,4-thiadiazol-2-ylthio)acetamido]cephalosporins” (American Home Products Corporation, priority 1975, dated 1976)", "assay_in_all_cases": "agar serial dilution MIC", "format_in_all_cases": "cell-based", "key": {"[1]": {"test_system": "Enterobacter aerogenes (EN AE) 13048", "conditions": "Klebsiella aerogenes", "experimental": "(§1) A stock solution of 7-[2-(4,5-dihydro-5-imino-1,3,4-thiadiazol-2-ylthio)acetamido]cephalosporanic acid as the hydrobromic acid addition salt containing 2,500 μg. of the active moiety is prepared in phosphate buffer. Two fold serial dilutions are prepared with phosphate buffer. One milliliter (ml.) quantities of each dilution are incorporated in 9 ml. seen agar in sterile Petri plates. The hardened surface is innoculated with test organisms using a Steers replicating device. The plates are incubated at 35° C. for 18 hours.\n(§2) The test organisms are Bacillus subtilis (BA SU) 6633; Staphylococcus aureus (ST AU) 6538P, Smith CHP, and 3-180; Mycobacterium smegmatis (MY SM) 10143; Neisseria catarrhalis (NE CA) 8193; Pseudonomas aeruginosa (PS AE) 10145; Escherichia coli (ES CO) 9637, and 920; Escherichia intermedia (ES IN) 65-1; Salmonella paratyphi (SA PA) 11737; Enterobacter aerogenes (EN AE) 13048; Klebsiella pneumoniae (KL PN) 10031; Bordetella bronchiseptica (BO BR) 4617; Proteus vulgaris (PR VU) 6896; and Herellea species (HE SP) 9955. These organisms are grown for 18 hours in Brain heart infusion at 35° C. Prior to use the cultures are diluted 10 fold with the infusion, except in the case of Mycobacterium. The latter is grown in Emerson's broth for 5 days at 28° C. in shaker flasks and used undiluted.\n(§3) A second preparation of 7-[2-(4,5-dihydro-5-imino-1,3,4-thiadiazol-2-ylthio)acetamido]cephalosporanic acid prepared as described in Example 1 is tested as described in Example 2. The minimum inhibitory concentrations obtained are as follows: […]"}, "[2]": {"test_system": "Escherichia coli (ES CO) 9637", "experimental": "as §1, §2, §3"}, "[3]": {"test_system": "Staphylococcus aureus (ST AU) 3-180", "conditions": "18 h", "experimental": "as §1, §2, §3"}, "[4]": {"test_system": "Staphylococcus aureus (ST AU) Smith", "experimental": "as §1, §2, §3"}, "[5]": {"test_system": "Salmonella paratyphi (SA PA) 11737", "conditions": "Salmonella enterica, 18 h", "experimental": "as §1, §2, §3"}, "[6]": {"test_system": "Escherichia coli (ES CO) 920", "experimental": "as §1, §2, §3"}, "[7]": {"test_system": "Bacillus subtilis (BA SU) 6633", "experimental": "as §1, §2, §3"}, "[8]": {"test_system": "Proteus vulgaris (PR VU) 6896", "experimental": "as §1, §2, §3"}, "[9]": {"test_system": "Bordetella bronchiseptica (BO BR) 4617", "conditions": "18 h", "experimental": "as §1, §2, §3"}, "[10]": {"test_system": "Staphylococcus aureus (ST AU) 6538P", "experimental": "as §1, §2, §3"}, "[11]": {"test_system": "Escherichia intermedia (ES IN) 65-1", "conditions": "Citrobacter intermedius", "experimental": "as §1, §2, §3"}, "[12]": {"test_system": "Klebsiella pneumoniae (KL PN) 10031", "experimental": "as §1, §2, §3"}, "[13]": {"test_system": "Staphylococcus aureus (ST AU) CHP", "experimental": "as §1, §2, §3"}, "[14]": {"test_system": "Herellea species (HE SP) 9955", "experimental": "as §1, §2, §3"}, "[15]": {"test_system": "Mycobacterium smegmatis (MY SM) 10143", "conditions": "Mycolicibacterium smegmatis", "experimental": "as §1, §2, §3"}, "[16]": {"conditions": "18 h, second preparation (Example 3), read-out: minimum inhibitory concentration (MIC)"}, "[17]": {"conditions": "first preparation (Example 2), HBr salt, 35° C., 18 hours, read-out: minimum concentration (MIC) required to completely inhibit growth"}, "[18]": {"conditions": "read-out: minimum concentration (MIC) required to completely inhibit growth"}, "[19]": {"conditions": "second preparation (Example 3), read-out: minimum inhibitory concentration (MIC)"}}, "note": "Read-outs that look alike come from different tables or passages of the source."}
{"smiles": "CC(=O)OCC1=C(C(=O)O)N2C(=O)C(NC(=O)CSc3n[nH]c(=N)s3)C2SC1", "note": "(stereo not drawn) [7-[2-(4,5-Dihydro-5-Imino-1,3,4-Thiadiazol-2-ylthio)Acetamido]Cephalosporanic Acid]", "values": [{"measurement": "MIC", "setting": "[1]; [16]", "value": "> 250", "unit": "µg/mL"}, {"measurement": "MIC", "setting": "[1]; [17]", "value": "> 250", "unit": "µg/mL"}, {"measurement": "MIC", "setting": "[2]; [16]", "value": 31.3, "unit": "µg/mL"}, {"measurement": "MIC", "setting": "[2]; [17]", "value": 7.81, "unit": "µg/mL"}, {"measurement": "MIC", "setting": "[3]; [18]", "value": 1.95, "unit": "µg/mL"}, {"measurement": "MIC", "setting": "[3]; [19]", "value": 3.9, "unit": "µg/mL"}, {"measurement": "MIC", "setting": "[4]; [16]", "value": 0.488, "unit": "µg/mL"}, {"measurement": "MIC", "setting": "[4]; [17]", "value": 0.244, "unit": "µg/mL"}, {"measurement": "MIC", "setting": "[5]; [18]", "value": 3.9, "unit": "µg/mL"}, {"measurement": "MIC", "setting": "[5]; read-out: minimum inhibitory concentration (MIC)", "value": 3.9, "unit": "µg/mL"}, {"measurement": "MIC", "setting": "[6]; [16]", "value": 3.9, "unit": "µg/mL"}, {"measurement": "MIC", "setting": "[6]; [17]", "value": 15.6, "unit": "µg/mL"}, {"measurement": "MIC", "setting": "[7]; [16]", "value": 0.122, "unit": "µg/mL"}, {"measurement": "MIC", "setting": "[7]; [17]", "value": 0.122, "unit": "µg/mL"}, {"measurement": "MIC", "setting": "[8]; [16]", "value": 3.9, "unit": "µg/mL"}, {"measurement": "MIC", "setting": "[8]; [17]", "value": 15.6, "unit": "µg/mL"}, {"measurement": "MIC", "setting": "[9]; [18]", "value": 7.81, "unit": "µg/mL"}, {"measurement": "MIC", "setting": "[9]; [19]", "value": 3.9, "unit": "µg/mL"}, {"measurement": "MIC", "setting": "[10]; [16]", "value": 0.976, "unit": "µg/mL"}, {"measurement": "MIC", "setting": "[10]; [17]", "value": 0.488, "unit": "µg/mL"}, {"measurement": "MIC", "setting": "[11]; [16]", "value": "> 250", "unit": "µg/mL"}, {"measurement": "MIC", "setting": "[11]; [17]", "value": "> 250", "unit": "µg/mL"}, {"measurement": "MIC", "setting": "[12]; [16]", "value": 3.9, "unit": "µg/mL"}, {"measurement": "MIC", "setting": "[12]; [17]", "value": 3.9, "unit": "µg/mL"}, {"measurement": "MIC", "setting": "[13]; 18 h, read-out: minimum inhibitory concentration (MIC)", "value": 1.95, "unit": "µg/mL"}, {"measurement": "MIC", "setting": "[13]; [17]", "value": 0.976, "unit": "µg/mL"}, {"measurement": "MIC", "setting": "[14]; [16]", "value": "> 250", "unit": "µg/mL"}, {"measurement": "MIC", "setting": "[14]; [17]", "value": "> 250", "unit": "µg/mL"}, {"measurement": "MIC", "setting": "[15]; [16]", "value": "> 250", "unit": "µg/mL"}, {"measurement": "MIC", "setting": "[15]; [17]", "value": "> 250", "unit": "µg/mL"}]}
